The values below come from patent publication US10273246B2, “Methods and compositions of substituted 5H-[1,2,5] oxadiazolo [3′,4′:5,6] pyrazino[2,3-B] indole analogs as inhibitors of β-catenin/T-cell factor protein-protein interactions” (University of Utah Research Foundation, priority 2015, dated 2019).

Where two headings read alike, the source gives them in different places.

The target in assay [1] is T1, β-catenin/Tcf4 PPI (Homo sapiens, UniProt P35222).
T1 sequence (P35222 138-686): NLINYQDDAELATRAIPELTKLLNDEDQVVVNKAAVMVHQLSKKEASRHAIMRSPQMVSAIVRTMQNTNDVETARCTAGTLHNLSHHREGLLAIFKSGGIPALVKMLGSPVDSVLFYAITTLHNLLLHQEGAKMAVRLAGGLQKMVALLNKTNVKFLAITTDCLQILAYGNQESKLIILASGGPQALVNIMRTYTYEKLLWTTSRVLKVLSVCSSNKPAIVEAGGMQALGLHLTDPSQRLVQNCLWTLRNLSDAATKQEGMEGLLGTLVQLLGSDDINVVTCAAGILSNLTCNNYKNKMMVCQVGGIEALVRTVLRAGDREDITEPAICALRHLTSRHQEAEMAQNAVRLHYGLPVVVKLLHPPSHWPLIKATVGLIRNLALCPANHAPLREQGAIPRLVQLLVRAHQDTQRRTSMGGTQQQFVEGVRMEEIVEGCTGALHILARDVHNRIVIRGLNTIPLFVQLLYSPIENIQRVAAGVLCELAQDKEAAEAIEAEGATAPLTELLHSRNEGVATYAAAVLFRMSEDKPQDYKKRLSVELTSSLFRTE
The following applies: Table 3, known inhibitors, footnotes a, b; read-out: Ki + SD FP; cited from earlier work.

Another assay concerns the target T2, β-catenin/Tcf4 (Homo sapiens, UniProt P35222).
T2 sequence (P35222 138-686): T1 sequence (P35222 138-686)
The following applies: FP selectivity assay, known inhibitors, footnotes a, b; read-out: Ki ± SD β-catenin/Tcf4; cited from earlier work.

In a further assay the target is T3, β-catenin/E-cadherin (Homo sapiens, UniProt P35222).
T3 construct: Wild-type β-catenin and its mutants (residues 138-686) were cloned; 6xHis; made in house; host or cells: E. coli BL21 DE3
T3 sequence (P35222 138-686): T1 sequence (P35222 138-686)
The note with it: FP selectivity assay, known inhibitors, footnotes a, b; read-out: Ki ± SD β-catenin/E-cadherin; cited from earlier work.

For a further assay, the target named is T4, β-catenin/APC-R3 (Homo sapiens, UniProt P35222).
T4 construct: Wild-type β-catenin and its mutants (residues 138-686) were cloned; 6xHis; made in house; host or cells: E. coli BL21 DE3
T4 sequence (P35222 138-686): T1 sequence (P35222 138-686)
The following applies: FP selectivity assay, known inhibitors, footnotes a, b; read-out: Ki ± SD β-catenin/APC-R3; cited from earlier work.

In assay [2] the test system is FOPFlash luciferase (reporter with eight mutant Tcf binding sites). The class given is cell-based, human. Here is the method: (§1) FuGENE 6 (E2962, Promega) in a 96-well plate format was used for the transfection of HEK293 and SW480 cells according to the manufacturer's instructions. […] SW480 cells were co-transfected with 60 ng of the TOPFlash or FOPFlash reporter gene and 40 ng pCMV-RL normalization reporter. Cells were cultured in DMEM and 10% fatal bovine serum at 37° C. for 24 h, and different concentrations of inhibitors were then added. After 24 h, the luciferase reporter activity was measured using the Dual-Glo system (E2940, Promega). Normalized luciferase activity in response to the treatment with the inhibitors was compared with that obtained from the cells treated with DMSO. Experiments were performed in triplicate.

In assay [3] the test system is cyclin D1, c-myc and β-catenin protein expression in SW480 cells. The assay is described as follows: Western blot analysis. The assay is classed as cell-based, human. The following applies: SW480, 24 h. Here is the method: SW480 cells at 1×10^6 cells/mL were treated with different concentrations of 18 for 24 h. Cell were lysed in a buffer containing 50 mM Tris (pH 7.4), 150 mM NaCl, 1% Nonidet P-40, 0.5% sodium deoxycholate, 0.1% SDS, and protease inhibitors. After centrifugation at 12,000 rpm for 20 min at 4° C., the supernatant was loaded onto an 8% SDS polyacrylamide gel for electrophoretic analysis. Separated proteins were transferred onto nitrocellulose membranes for immunoblot analysis. The antibodies against c-myc (D84C12, Cell Signaling), cyclin D1 (sc-853, Santa Cruz Biotechnology, Inc.), and β-tubulin (sc-55529, Santa Cruz Biotechnology, Inc) were used. IRDye 680LT goat anti-mouse IgG (827-11080, LiCOR) or IRDye 800CW goat anti-rabbit IgG (827-08365, LiCOR) was used as the secondary antibody. The images were detected by the Odyssey Infrared Imaging System (LiCOR). The Western blot bands were quantified by LI-COR Image Studio Lite 4.0. Experiments were performed in duplicate.
In general terms: Immunoblotting shows a protein as a band on a membrane.

The target of assay [4] is T5, β-catenin/Tcf PPI in SW480 cells (Homo sapiens, UniProt P35222).
T5 construct: endogenous in cells; host or cells: SW480
T5 sequence (P35222 2-781 limits assumed): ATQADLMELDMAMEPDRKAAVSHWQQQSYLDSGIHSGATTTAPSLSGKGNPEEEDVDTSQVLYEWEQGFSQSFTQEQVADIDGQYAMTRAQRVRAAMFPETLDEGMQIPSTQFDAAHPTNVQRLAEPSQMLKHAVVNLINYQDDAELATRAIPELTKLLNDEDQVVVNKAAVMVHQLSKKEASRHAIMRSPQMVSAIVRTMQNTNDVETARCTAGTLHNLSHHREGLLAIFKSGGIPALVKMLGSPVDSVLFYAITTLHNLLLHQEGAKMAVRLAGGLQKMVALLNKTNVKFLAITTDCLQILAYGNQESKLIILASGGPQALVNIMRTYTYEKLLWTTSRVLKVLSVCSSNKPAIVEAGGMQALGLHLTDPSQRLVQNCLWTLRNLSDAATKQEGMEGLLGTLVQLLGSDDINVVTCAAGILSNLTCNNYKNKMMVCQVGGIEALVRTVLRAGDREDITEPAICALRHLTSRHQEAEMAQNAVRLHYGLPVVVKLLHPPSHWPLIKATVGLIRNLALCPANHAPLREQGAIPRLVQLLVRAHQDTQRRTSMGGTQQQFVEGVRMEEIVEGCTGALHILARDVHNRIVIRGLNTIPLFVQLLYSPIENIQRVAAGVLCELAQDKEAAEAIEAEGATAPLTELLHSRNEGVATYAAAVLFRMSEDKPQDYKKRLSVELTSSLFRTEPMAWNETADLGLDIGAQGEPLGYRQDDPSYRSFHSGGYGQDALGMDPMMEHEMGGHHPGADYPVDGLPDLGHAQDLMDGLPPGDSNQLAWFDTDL
Description: Coimmunoprecipitation assay. The assay is classed as cell-based. The following applies: SW480, 24 h. Here is the method: SW480 cells at 1×10^6/mL were treated with different concentrations of 18 for 24 h. Cells were lysed in buffer containing 50 mM Tris, pH 7.4, 150 mM NaCl, 1% Nonidet P-40, 2 mM EDTA, and protease inhibitors. The lysates were preabsorbed to A/G plus agarose (sc-2003, Santa Cruz Biotechnology, Inc.) at 4° C. for 1 h. Preadsorbed lysates were incubated with a specific primary antibody overnight at 4° C. A/G plus agarose was then added to the lysates mixture and incubated for 3 h. The beads were washed 5 times with the lysis buffer at 4° C. The bound protein was eluted by boiling in the SDS sample buffer and loaded onto 8% SDS polyacrylamide gel for electrophoretic analysis. Separated proteins were transferred onto nitrocellulose membranes for immunoblot analysis. The primary antibodies were against fl-catenin (610153, BD Biosciences) and Tcf4 (05-511, Millipore). IRDye 680LT goat anti-mouse IgG (827-11080, LiCOR) was used as the secondary antibody. The images were detected by the Odyssey Infrared Imaging System (LiCOR). Experiments were performed in duplicate.

For assay [5], the system named is Wnt/β-catenin target genes in SW480 cells.
Description: Total RNAs were extracted with TRIzol (Ser. […] The threshold cycle (CT) values were normalized to that of internal reference GAPDH. The primer pairs for human GAPDH were forward: [NT] and reverse: [NT]; for human HPRT forward: [NT] and reverse: [NT]; for human AXIN2 forward: [NT] and reverse: [NT]; for human c-myc forward: [NT] and reverse: [NT]; and for human cyclin D1 forward: [NT] and reverse: [NT]. Experiments were performed in triplicate.
In assay [6] the target is T1, β-catenin/Tcf4 PPI. The following applies: read-out: Ki ± SD FP; Table 8, resynthesized 18 and derivatives.
Description: (§3) After β-catenin and fluorescein-Tcf4 form a protein-protein complex, the fluorophore is attached to a high-molecular-weight protein complex (≥60 kDa) and has a low rotational speed when it is excited by plane-polarized light. […] When an inhibitor completely disrupts the β-catenin/fluorescein-Tcf4 PPI, the fluorophore is only attached to Tcf4 (≤6 kDa), and the emitted light after excitation will be largely depolarized due to a high rotational speed of the fluorophore. AlphaScreen is a bead-based assay. […] On laser excitation at 680 nm, the photo sensitizers inside the donor beads convert ambient oxygen to a singlet oxygen state. Only when the donor and acceptor beads are brought within 200 nm can the singlet oxygen molecules diffuse to the acceptor beads, resulting in extensive emission at 570 nm.
In assay [7] the target is T1, β-catenin/Tcf4 PPI. Description: biochemical.
Description: as §3
Assay [8] deals with canonical Wnt signaling in colorectal cancer SW480 cells. Description: TOPFlash luciferase reporter assay, SW480. The note with it: Homo sapiens, SW480, 24 h, read-out: TOPFlash IC50 ± SD SW480. The assay is classed as cell-based. Here is the method:
as §1
(A reporter such as luciferase makes a cellular process visible.)

The subject of another assay is SW480 cells. The assay is described as follows: MTs cell viability assay, SW480. The class given is cell-based, human. The note with it: Homo sapiens, SW480; MTs cell viability, 72 h; read-out: IC50 ± SD SW480. On the procedure: (§2) Colorectal cancer cell lines, SW480, HT29, an HCT116, and human normal cell line HEK293 were seeded in 96-well plates at 4×10^3 cells/well, maintained overnight at 37° C., and incubated with the tested compounds at various concentrations. Cell viability was monitored after 72 h using a freshly prepared mixture of 1 part phenazine methosulfate (PMS, Sigma) solution (0.92 mg/mL) and 19 parts 3-(4,5-dimethylthiazol-2-yl)-5-(3-carboxymethoxyphenyl)-2-(4-sulfophenyl)-2H-tetrazolium (MTs, Promega) solution (2 mg/mL). Cells were incubated in 10 μL of this solution at 37° C. for 3 h, and A490 was measured. […] Experiments were performed in triplicate.

A further assay concerns HCT116 cells. The assay is described as follows: MTs cell viability assay, HCT116. The class given is cell-based, human. The note with it: Homo sapiens, HCT-116; MTs cell viability, 72 h; read-out: IC50 ± SD HCT116. On the procedure: as §2
A further assay has as its system HT29 cells. Description: MTs cell viability assay, HT29. The assay is classed as cell-based. The following applies: Homo sapiens, HT-29, 72 h, read-out: IC50 ± SD HT29. On the procedure: as §2

Consider `COC1=C(CC(C)OC(=O)Oc2ccc(O)cc2)C2c3c(c(O)cc(OC)c3-c3c(OC)cc(O)c4c3C2C(CC(C)OC(=O)c2ccccc2)=C(OC)C4=O)C1=O` (stereo not drawn) [Compound 1], for which the Ki was 18 ± 2.1 µM at β-catenin/Tcf4 PPI [1], 77 ± 9.3 µM on β-catenin/Tcf4, 38 ± 1.6 µM on β-catenin/E-cadherin and 110 ± 0.58 µM on β-catenin/APC-R3.

In the case of `Nc1nonc1C(=O)N/N=C1/c2ccccc2-c2nc3nonc3nc21` [Compound 18, (Z)-4-Amino-N′-(9H-Indeno[1,2-B][1,2,5]Oxadiazolo[3,4-E]Pyrazin-9-ylidene)-1,2,5-Oxadiazole-3-Carbohydrazide], the “concentrations at which FOPFlash luciferase activity was inhibited” value in assay [2] (HEK293 and SW480 (FIG. 7), off-target effects) is no less than 5 µM. Further, in assay [3], the “expression level of β-catenin” value is “did not reduce”; the “expression of proteins cyclin D1 and c-myc” value was “significantly reduced”. The “β-catenin/Tcf PPI in a cellular context” value in assay [4] is “inhibits the β-catenin/Tcf PPI in a dose-dependent manner”. The mRNA expression inhibited entry in assay [5] (AXIN2, cyclin D1, c-myc, dose of 2 μM, SW480, 24 h) is listed as “More than 50%”. Further, the “expression of house-keeping gene HPRT” value in assay [5] (SW480) is “did not affect”. Moreover, the “expression of AXIN2, cyclin D1, and c-myc (mRNA)” value in assay [5] (SW480, dose-dependent) is “down-regulated”.

Regarding `N#CCn1c2ccccc2c2nc3nonc3nc21` [Compound 34, 2-(5H-[1,2,5]Oxadiazolo[3′,4′:5,6]Pyrazino[2,3-B]Indol-5-yl)Acetonitrile], the figures for the Ki at β-catenin/Tcf4 PPI [6] and on β-catenin/Tcf4 PPI [7] were 240 ± 14 µM and greater than 130 µM, respectively.

Consider `COc1ccc(/C=C2\SC(=S)N(CCCC(=O)O)C2=O)cc1OC` [Compound 9, reference compound], for which the IC50 (as a rule, the concentration that inhibits the measured activity by half) in assay [8] stood at 4 ± 0.39 µM; in the assay with SW480 cells it was 240 ± 2.5 µM; in the assay with HCT116 cells it was 180 ± 2.9 µM; in the assay on HT29 cells it was 290 ± 2.4 µM. For the same compound, in assay [2] (reference inhibitors), the “FOPFlash luciferase reporter activity” value was “inhibited”.
